From patent US11208400B2, “Substituted 6-(1H-pyrazol-1-yl)pyrimidin-4-amine derivatives and uses thereof” (Bayer Aktiengesellschaft, priority 2016, dated 2021)
Where a name gives a salt, the structure may show the parent alone.

Target: T1, human Npt2a (Homo sapiens, UniProt Q06495)
T1 construct: expressed in transfected cells
T1 sequence (Q06495 1-639): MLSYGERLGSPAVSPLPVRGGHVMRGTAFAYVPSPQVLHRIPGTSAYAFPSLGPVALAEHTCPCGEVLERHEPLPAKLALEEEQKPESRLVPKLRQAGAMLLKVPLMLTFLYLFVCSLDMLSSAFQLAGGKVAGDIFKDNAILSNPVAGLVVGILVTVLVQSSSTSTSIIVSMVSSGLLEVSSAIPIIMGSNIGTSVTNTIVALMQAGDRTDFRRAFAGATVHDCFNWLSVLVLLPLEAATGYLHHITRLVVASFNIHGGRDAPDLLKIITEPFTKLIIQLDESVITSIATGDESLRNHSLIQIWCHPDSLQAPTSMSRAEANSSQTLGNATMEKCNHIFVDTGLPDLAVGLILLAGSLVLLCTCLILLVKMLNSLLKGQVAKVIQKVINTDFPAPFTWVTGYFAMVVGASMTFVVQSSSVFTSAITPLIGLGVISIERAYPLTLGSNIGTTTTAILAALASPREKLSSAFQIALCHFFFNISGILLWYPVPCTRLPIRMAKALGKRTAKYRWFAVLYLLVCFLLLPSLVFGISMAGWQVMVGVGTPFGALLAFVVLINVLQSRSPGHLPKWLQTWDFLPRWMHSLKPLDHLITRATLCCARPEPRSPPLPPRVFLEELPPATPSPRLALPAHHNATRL
Test: Npt2a activity cell based assay, membrane potential dye, CHO T-REx hNpt2a cells
Details: doxycycline-induced, depolarization by sodium phosphate influx, average or median values if tested more than once
Summary of the method: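 Doxycycline-induced (0.5 μg/mL, 24 h) CHO T-REx cells were loaded with membrane potential dye in sodium-free NHE buffer (pH 7.4) and exposed to compound (50 μM–1 nM, 5 min, room temperature).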

Q: How did the IC50 turn out when `CCOC(=O)Cc1c(C)nn(-c2cc(Nc3nn(C)c(-c4ccc(C#N)cc4)c3OC)ncn2)c1C` [Example 492, ethyl [1-(6-{[5-(4-cyanophenyl)-4-methoxy-1-methyl-1H-pyrazol-3-yl]amino}pyrimidin-4-yl)-3,5-dimethyl-1H-pyrazol-4-yl]acetate] was run?
A: 0.013 µM

Q: `COc1c(Nc2cc(-n3nc(C)c(OC)c3C)ncn2)nn(C)c1-c1ccc(C#N)cc1` [Example 493, 4-(4-methoxy-3-{[6-(4-methoxy-3,5-dimethyl-1H-pyrazol-1-yl)pyrimidin-4-yl]amino}-1-methyl-1H-pyrazol-5-yl)benzonitrile] was tested. Which IC50 did it give?
A: 0.625 µM

Q: For `COc1ccc(-c2nn(C)c(Nc3cc(-n4nc(C)c(C(F)(F)F)c4C)ncn3)c2C)cn1` [Example 494, 6-[3,5-dimethyl-4-(trifluoromethyl)-1H-pyrazol-1-yl]-N-[3-(6-methoxypyridin-3-yl)-1,4-dimethyl-1H-pyrazol-5-yl]pyrimidin-4-amine], which IC50 is on record?
A: 0.19 µM

Q: For `CC(=O)Oc1c(C)nn(-c2cc(Nc3c(C)c(-c4ccc(F)cc4)nn3CC3CC3)ncn2)c1C` [Example 497, 1-(6-{[1-(cyclopropylmethyl)-3-(4-fluorophenyl)-4-methyl-1H-pyrazol-5-yl]amino}pyrimidin-4-yl)-3,5-dimethyl-1H-pyrazol-4-yl acetate], which IC50 is on record?
A: 0.003 µM

Q: Which IC50 does the source give for `COc1ccc(-c2nn(CC3CC3)c(Nc3cc(-n4nc(C)c(Cl)c4C)ncn3)c2C)cn1` [Example 498, 6-(4-chloro-3,5-dimethyl-1H-pyrazol-1-yl)-N-[1-(cyclopropylmethyl)-3-(6-methoxypyridin-3-yl)-4-methyl-1H-pyrazol-5-yl]pyrimidin-4-amine] here?
A: 1.31 µM

Q: With `COc1ccc(-c2nn(C)c(Nc3cc(-n4nc(C)cc4C(F)F)ncn3)c2C)cn1` [Example 499, 6-[5-(difluoromethyl)-3-methyl-1H-pyrazol-1-yl]-N-[3-(6-methoxypyridin-3-yl)-1,4-dimethyl-1H-pyrazol-5-yl]pyrimidin-4-amine] as the compound, how does the IC50 read?
A: 3.15 µM

Q: With `Cc1nn(-c2cc(Nc3nn(C)c(-c4ccc(F)cc4)c3OC(F)F)ncn2)c(C)c1C(C)(C)O` [Example 500, 2-[1-(6-{[4-(difluoromethoxy)-5-(4-fluorophenyl)-1-methyl-1H-pyrazol-3-yl]amino}pyrimidin-4-yl)-3,5-dimethyl-1H-pyrazol-4-yl]propan-2-ol] as the compound, how does the IC50 read?
A: 0.052 µM

Q: For `CCNc1c(C)nn(-c2cc(Nc3c(C)c(-c4ccc(F)cc4)nn3CC3CC3)ncn2)c1C` [Example 501, N-[1-(cyclopropylmethyl)-3-(4-fluorophenyl)-4-methyl-1H-pyrazol-5-yl]-6-[4-(ethylamino)-3,5-dimethyl-1H-pyrazol-1-yl]pyrimidin-4-amine trifluoroacetate], which IC50 is on record?
A: 0.005 µM

Q: `CC(=O)c1c(C)nn(-c2cc(Nc3c(C)c(-c4ccc(F)cc4)nn3CC3CC3)ncn2)c1C` [Example 502, 1-[1-(6-{[1-(cyclopropylmethyl)-3-(4-fluorophenyl)-4-methyl-1H-pyrazol-5-yl]amino}pyrimidin-4-yl)-3,5-dimethyl-1H-pyrazol-4-yl]ethanone] was tested. Which IC50 did it give?
A: 0.005 µM

Q: For `COCc1c(C)nn(-c2cc(Nc3c(C)c(-c4ccc(F)cc4)nn3CC3CC3)ncn2)c1C` [Example 503, N-[1-(cyclopropylmethyl)-3-(4-fluorophenyl)-4-methyl-1H-pyrazol-5-yl]-6-[4-(methoxymethyl)-3,5-dimethyl-1H-pyrazol-1-yl]pyrimidin-4-amine], which IC50 is on record?
A: 0.004 µM

Q: How did the IC50 turn out when `COc1ccc(-c2nn(C)c(Nc3cc(-n4nc(C)c(Cl)c4C)ncn3)c2C)cn1` [Example 505, 6-(4-chloro-3,5-dimethyl-1H-pyrazol-1-yl)-N-[3-(6-methoxypyridin-3-yl)-1,4-dimethyl-1H-pyrazol-5-yl]pyrimidin-4-amine] was run?
A: 1.2 µM

Q: `Cc1nn(-c2cc(Nc3c(C)c(-c4ccc(F)cc4)nn3CC3CC3)ncn2)c(C)c1OCC#N` [Example 506, {[1-(6-{[1-(cyclopropylmethyl)-3-(4-fluorophenyl)-4-methyl-1H-pyrazol-5-yl]amino}pyrimidin-4-yl)-3,5-dimethyl-1H-pyrazol-4-yl]oxy}acetonitrile] was tested. Which IC50 did it give?
A: 0.028 µM

Q: `Cc1nn(-c2cc(Nc3c(C)c(-c4ccc(F)cc4)nn3CC3CC3)ncn2)c(C)c1OC(F)F` [Example 509, N-[1-(cyclopropylmethyl)-3-(4-fluorophenyl)-4-methyl-1H-pyrazol-5-yl]-6-[4-(difluoromethoxy)-3,5-dimethyl-1H-pyrazol-1-yl]pyrimidin-4-amine] was tested. Which IC50 did it give?
A: 0.01 µM

Q: With `COc1c(C)nn(-c2cc(Nc3c(C)c(-c4ccc(C(F)F)nc4)nn3CC3CC3)ncn2)c1C` [Example 510, N-{1-(cyclopropylmethyl)-3-[6-(difluoromethyl)pyridin-3-yl]-4-methyl-1H-pyrazol-5-yl}-6-(4-methoxy-3,5-dimethyl-1H-pyrazol-1-yl)pyrimidin-4-amine] as the compound, how does the IC50 read?
A: 0.19 µM

Q: With `Cc1nn(-c2cc(Nc3c(C)c(-c4ccc(C(F)F)nc4)nn3CC3CC3)ncn2)c(C)c1Cl` [Example 511, 6-(4-chloro-3,5-dimethyl-1H-pyrazol-1-yl)-N-{1-(cyclopropylmethyl)-3-[6-(difluoromethyl)pyridin-3-yl]-4-methyl-1H-pyrazol-5-yl}pyrimidin-4-amine] as the compound, how does the IC50 read?
A: 0.12 µM

Q: For `Cc1nn(-c2cc(Nc3c(C)c(-c4ccc(C(F)F)nc4)nn3CC3CC3)ncn2)c(C)c1C#N` [Example 512, 1-[6-({1-(cyclopropylmethyl)-3-[6-(difluoromethyl)pyridin-3-yl]-4-methyl-1H-pyrazol-5-yl}amino)pyrimidin-4-yl]-3,5-dimethyl-1H-pyrazole-4-carbonitrile], which IC50 is on record?
A: 1.4 µM

Q: For `Cc1nn(-c2cc(Nc3c(C)c(C45C6C7C4C4C5C6C74C#N)nn3CC3CC3)ncn2)c(C)c1Cl` (centres unmarked) [Example 513, 4-[5-{[6-(4-chloro-3,5-dimethyl-1H-pyrazol-1-yl)pyrimidin-4-yl]amino}-1-(cyclopropylmethyl)-4-methyl-1H-pyrazol-3-yl]cubane-1-carbonitrile], which IC50 is on record?
A: 0.007 µM

Q: `COc1c(C)nn(-c2cc(Nc3c(C)c(C45C6C7C4C4C5C6C74C#N)nn3CC3CC3)ncn2)c1C` (centres unmarked) [Example 514, 4-[1-(cyclopropylmethyl)-5-{[6-(4-methoxy-3,5-dimethyl-1H-pyrazol-1-yl)pyrimidin-4-yl]amino}-4-methyl-1H-pyrazol-3-yl]cubane-1-carbonitrile] was tested. Which IC50 did it give?
A: 0.009 µM

Q: For `Cc1nn(-c2cc(Nc3c(C)c(-c4ccc(F)cc4)nn3CC3CC3)ncn2)c(C)c1C1(C(F)(F)F)OCCO1` [Example 517, N-[1-(cyclopropylmethyl)-3-(4-fluorophenyl)-4-methyl-1H-pyrazol-5-yl]-6-{3,5-dimethyl-4-[2-(trifluoromethyl)-1,3-dioxolan-2-yl]-1H-pyrazol-1-yl}pyrimidin-4-amine], which IC50 is on record?
A: 0.029 µM

Q: Which IC50 does the source give for `COC(=O)Oc1c(C)nn(-c2cc(Nc3c(C)c(-c4ccc(F)cc4)nn3CC3CC3)ncn2)c1C` [Example 518, 1-(6-{[1-(cyclopropylmethyl)-3-(4-fluorophenyl)-4-methyl-1H-pyrazol-5-yl]amino}pyrimidin-4-yl)-3,5-dimethyl-1H-pyrazol-4-yl methyl carbonate] here?
A: 0.014 µM

Q: For `CNC(=O)Oc1c(C)nn(-c2cc(Nc3c(C)c(-c4ccc(F)cc4)nn3CC3CC3)ncn2)c1C` [Example 519, 1-(6-{[1-(cyclopropylmethyl)-3-(4-fluorophenyl)-4-methyl-1H-pyrazol-5-yl]amino}pyrimidin-4-yl)-3,5-dimethyl-1H-pyrazol-4-yl methylcarbamate], which IC50 is on record?
A: 0.23 µM

Q: `Cc1nn(-c2cc(Nc3c(C)c(-c4ccc(F)cc4)nn3CC3CC3)ncn2)c(C)c1OC(=O)N(C)C` [Example 520, 1-(6-{[1-(cyclopropylmethyl)-3-(4-fluorophenyl)-4-methyl-1H-pyrazol-5-yl]amino}pyrimidin-4-yl)-3,5-dimethyl-1H-pyrazol-4-yl dimethylcarbamate] was tested. Which IC50 did it give?
A: 1.6 µM

Q: Which IC50 does the source give for `CNc1ccc(-c2nn(CCOC)c(Nc3cc(-n4nc(C)c(Cl)c4C)ncn3)c2C)cc1` [Example 521, 6-(4-chloro-3,5-dimethyl-1H-pyrazol-1-yl)-N-{1-(2-methoxyethyl)-4-methyl-3-[4-(methylamino)phenyl]-1H-pyrazol-5-yl}pyrimidin-4-amine] here?
A: 0.008 µM

Q: `CCCN1Cc2cnn(-c3cc(Nc4c(C)c(-c5ccc(F)cc5)nn4CC4CC4)ncn3)c2C1` [Example 522, N-[1-(cyclopropylmethyl)-3-(4-fluorophenyl)-4-methyl-1H-pyrazol-5-yl]-6-(5-propyl-5,6-dihydropyrrolo[3,4-c]pyrazol-1(4H)-yl)pyrimidin-4-amine] was tested. Which IC50 did it give?
A: 0.91 µM

Q: Which IC50 does the source give for `CCCN1Cc2cn(-c3cc(Nc4c(C)c(-c5ccc(F)cc5)nn4CC4CC4)ncn3)nc2C1` [Example 523, N-[1-(cyclopropylmethyl)-3-(4-fluorophenyl)-4-methyl-1H-pyrazol-5-yl]-6-(5-propyl-5,6-dihydropyrrolo[3,4-c]pyrazol-2(4H)-yl)pyrimidin-4-amine] here?
A: 0.69 µM

Q: Which IC50 does the source give for `COCCn1nc(-c2ccc(F)cc2)c(C)c1Nc1cc(-n2nc(C)c(C(F)(F)F)c2C)ncn1` [Example 524, 6-[3,5-dimethyl-4-(trifluoromethyl)-1H-pyrazol-1-yl]-N-[3-(4-fluorophenyl)-1-(2-methoxyethyl)-4-methyl-1H-pyrazol-5-yl]pyrimidin-4-amine] here?
A: 0.008 µM
